For the data set the following is noted: from CC[C@@H](O)C(C)=C=C[C@@H](OCc1ccccc1)[C@H](C)CC(C)=C=C[C@H](OCc1ccccc1)[C@@H](C)C(=O)O; ester bond; 2,4,6-trichlorobenzoyl chloride / TEA / DMAP (Yamaguchi); toluene; 3.18 mM; 80.0 °C; 8.0 h.

The compound `CC[C@H]1OC(=O)[C@H](C)[C@@H](OCc2ccccc2)C=C=C(C)C[C@@H](C)[C@H](OCc2ccccc2)C=C=C1C` registered a ring closure, yield of all isomers of 64%.

The record behind these values is patent US8796474.
